Experimental data as given in patent publication US5968910A, “Compositions containing two or three inhibitors of different HIV reverse transcriptases” (priority 1994, dated 1999).
Values after ≈ are worked out from the molar mass of the structure shown. Read-outs that look alike come from different tables or passages of the source.

Assays:
Type in all cases: cell-based
[1] = test system: HIV-1(IIIB) (WT); assay: microbe, parasite or virus in culture; conditions: Human immunodeficiency virus 1, IIIB, CCRF-CEM
In short: (§1)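 Syncytium formation read out after 4 days at 37° C. Cultures: CEM cells, 250,000/ml, infected at 100 50% cell culture infective doses/ml and added to compound dilutions.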

[2] = test system: HIV-1/I(0.1) 103-Asn; assay: Sensitivity of mutant HIV-1 strain in CEM cell cultures; conditions: Human immunodeficiency virus 1, CCRF-CEM; Table 5; read-out: EC50
In short: as §1

[3] = test system: HIV-1/II(0.1) 100-Ile; assay: as above; conditions: Human immunodeficiency virus 1, CCRF-CEM; Table 5; read-out: EC50
In short: as §1

[4] = test system: HIV-1/III(0.1) 103-Asn; assay: as above; conditions: Human immunodeficiency virus 1, CCRF-CEM; Table 5; read-out: EC50
In short: as §1

[5] = test system: HIV-1/IV(0.1) 103-Thr; assay: as above; conditions: Human immunodeficiency virus 1, CCRF-CEM; Table 5; read-out: EC50
In short: as §1

[6] = test system: HIV-1/Nev (106-Ala); assay: as above; conditions: Human immunodeficiency virus 1, CCRF-CEM; CEM cells, Table 1; read-out: 50% Effective Concentration
In short: as §1

[7] = test system: HIV-1/Pyr (181-Cys); assay: as above; conditions: Human immunodeficiency virus 1, CCRF-CEM; CEM cells, Table 1; read-out: 50% Effective Concentration
In short: as §1

[8] = test system: HIV-1/TIBO R82150 (100-Ile); assay: as above; conditions: Human immunodeficiency virus 1, CCRF-CEM; CEM cells, Table 1; read-out: 50% Effective Concentration
In short: as §1

[9] = test system: HIV-1/TIBO R82913 (103-Asn); assay: as above; conditions: Human immunodeficiency virus 1, CCRF-CEM; CEM cells, Table 1; read-out: 50% Effective Concentration
In short: as §1

[10] = test system: HIV-1/TSAO-m^3 T (138-Lys); assay: as above; conditions: Human immunodeficiency virus 1, CCRF-CEM; CEM cells, Table 1; read-out: 50% Effective Concentration
In short: as §1

[11] = test system: HIV-1/V(0.1) 101-Ile + 141-Glu; assay: as above; conditions: Human immunodeficiency virus 1, CCRF-CEM; Table 5; read-out: EC50
In short: as §1

[12] = test system: HIV-1/V(0.5) 103-Asn; assay: as above; conditions: Human immunodeficiency virus 1, CCRF-CEM; Table 5; read-out: EC50
In short: as §1

[13] = test system: HIV-1(IIIB); assay: Knock-out concentrations: breakthrough of HIV-1(IIIB)-induced cytopathicity in CEM cell cultures; conditions: for activity at 0.1 µg/mL / activity at 0.5 µg/mL / activity at 2.5 µg/mL: Human immunodeficiency virus 1, IIIB, CCRF-CEM, read-out: HIV-1-induced cytopathicity in cell culture; for activity at 0.1 µg/mL: 0.1 μg/ml; for activity at 0.5 µg/mL: 0.5 μg/ml; for activity at 2.5 µg/mL: 2.5 μg/ml
In short: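 CEM cells in RPMI 1640 with 10% FBS infected with HIV-1(IIIB) at ~1000× CCID50, subcultured every 3–4 days into fresh uninfected cells with drug held constant for 10 subcultivations (35 days), then ≥5 drug-free passages. Breakthrough scored by syncytium formation. Combinations used the two lowest single-drug starting concentrations.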

[14] = 936 h, day 39 post infection, compound absent from day 35
[15] = 1008 h, day 42 post infection, compound absent from day 35
[16] = 1104 h, day 46 post infection, compound absent from day 35
[17] = 1176 h, day 49 post infection, compound absent from day 35
[18] = 1272 h, day 53 post infection, compound absent from day 35

## Cc1occc1C(=S)Nc1ccc(Cl)c(C(=O)OCC(C)C)c1 [Compound II]
[1]; CEM cells, Table 1, read-out: 50% Effective Concentration
  EC50: 0.01 µg/mL (≈ 0.0284 µM)
[1]; HIV-1 (III8), Table 5, read-out: EC50
  EC50: 0.007 µg/mL (≈ 0.0199 µM)
[1]; range stated for Compounds I-V together, read-out: 50% inhibitory concentration, HIV-1(IIIB) replication in CEM cells
  IC50: 0.004 to 0.05 µg/mL (≈ 0.0114 to 0.142 µM)
[2]
  EC50: 0.15 µg/mL (≈ 0.426 µM)
[3]
  EC50: 0.5 µg/mL (≈ 1.42 µM)
[4]
  EC50: 0.16 µg/mL (≈ 0.455 µM)
[5]
  EC50: 0.4 µg/mL (≈ 1.14 µM)
[6]
  EC50: 0.075 µg/mL (≈ 0.213 µM)
[7]
  EC50: 0.07 µg/mL (≈ 0.199 µM)
[8]
  EC50: 0.19 µg/mL (≈ 0.54 µM)
[9]
  EC50: 0.45 µg/mL (≈ 1.28 µM)
[10]
  EC50: 0.06 µg/mL (≈ 0.171 µM)
[11]
  EC50: 0.06 µg/mL (≈ 0.171 µM)
[12]
  EC50: 0.8 µg/mL (≈ 2.27 µM)
[13]
  prevention of virus breakthrough, fold more efficient than BHAP: at least 5 fold
  prevention of virus breakthrough, fold more efficient than nevirapine: ≥ 25 fold
[13]; 96 h, day 4 post infection
  activity at 0.1 µg/mL: 0%
  activity at 0.5 µg/mL: 0%
  activity at 2.5 µg/mL: 0%
[13]; 192 h, day 8 post infection
  activity at 0.1 µg/mL: 0%
  activity at 0.5 µg/mL: 0%
  activity at 2.5 µg/mL: 0%
[13]; 264 h, day 11 post infection
  activity at 0.1 µg/mL: 0%
  activity at 0.5 µg/mL: 0%
  activity at 2.5 µg/mL: 0%
[13]; 336 h, day 14 post infection
  activity at 0.1 µg/mL: 12.5%
  activity at 0.5 µg/mL: 0%
  activity at 2.5 µg/mL: 0%
[13]; 408 h, day 17 post infection
  activity at 0.1 µg/mL: 50%
  activity at 0.5 µg/mL: 0%
  activity at 2.5 µg/mL: 0%
[13]; 504 h, day 21 post infection
  activity at 0.1 µg/mL: 100%
  activity at 0.5 µg/mL: 0%
  activity at 2.5 µg/mL: 0%
[13]; 600 h, day 25 post infection
  activity at 0.1 µg/mL: 100%
  activity at 0.5 µg/mL: 0%
  activity at 2.5 µg/mL: 0%
[13]; 672 h, day 28 post infection
  activity at 0.1 µg/mL: 100%
  activity at 0.5 µg/mL: 0%
  activity at 2.5 µg/mL: 0%
[13]; 768 h, day 32 post infection
  activity at 0.1 µg/mL: 100%
  activity at 0.5 µg/mL: 0%
  activity at 2.5 µg/mL: 0%
[13]; 840 h, day 35 post infection
  activity at 0.1 µg/mL: 100%
  activity at 0.5 µg/mL: 0%
  activity at 2.5 µg/mL: 0%
[13]; [14]
  activity at 0.1 µg/mL: 100%
  activity at 0.5 µg/mL: 0%
  activity at 2.5 µg/mL: 0%
[13]; [15]
  activity at 0.1 µg/mL: 100%
  activity at 0.5 µg/mL: 0%
  activity at 2.5 µg/mL: 0%
[13]; [16]
  activity at 0.1 µg/mL: 100%
  activity at 0.5 µg/mL: 0%
  activity at 2.5 µg/mL: 0%
[13]; [17]
  activity at 0.1 µg/mL: 100%
  activity at 0.5 µg/mL: 0%
  activity at 2.5 µg/mL: 0%
[13]; [18]
  activity at 0.1 µg/mL: 100%
  activity at 0.5 µg/mL: 0%
  activity at 2.5 µg/mL: 0%
[13]; tested at 0.1, 0.5 and 2.5 μg/ml, 35 days
  concentration at which virus emerged (virus breakthrough): 0.1 µg/mL
